Assay results reported in patent publication US9707196B2, “Treatment agent and/or prophylactic agent for side effects of cancer drugs” (SBI Pharmaceuticals Co., Ltd., priority 2011, dated 2017).

Experiments:
[1] = Case of an advanced colon cancer patient taking aminolevulinic acid phosphate salt and sodium ferrous citrate concurrently with anticancer agent therapy (Example 4); format: in vivo, human; conditions: one patient
SD rats [2] = assay: Side effects accompanying cisplatin administration in rats, with or without ALA (Example 1: survival, kidney HE staining, hair luster, stool state, activity); format: in vivo, rat; conditions: for Damage to the kidney (HE staining, Day 16): FIG. 2
Procedure: Forty-four 6 weeks-old SD rats (male) were purchased from Japan SLC, Inc. They were used for experiments after conditioning for 7 days after purchase.
The experiment duration was a total of 16 days, and experiment groups were divided into the following 5 groups I to V according to the ALA administration condition. […] CDDP administration dose was 8.0 mg/kg of body weight, and each rat was intraperitoneally administered. Saline was administered instead of cisplatin to Group I as the negative control group. ALA was also administered to Groups III, […], and V according to the following schedule. On the other hand, no ALA was administered to the positive control group (Group II). ALA administration to Groups III, IV, and V was performed by daily oral administration of 10 mg/kg of body weight of ALA hydrochloride salt+15.7 mg/kg of body weight of sodium ferrous citrate (dissolved in distilled water and sodium bicarbonate).
(ALA Administration Conditions of Groups I to V)
Group I (negative control group): Saline was administered on Day 6 from the start of experiment. They were otherwise kept as usual. n=4
Group II (positive control group): CDDP was administered on Day 6 from the start of experiment. They were otherwise kept as usual. n=10
Group III (“pre-administration group”): ALA was administered for a total of 5 days from the starting day of experiment to Day 5. CDDP was also administered on Day 6. They were otherwise kept as usual. n=10
Group IV (“post-administration group”): On Day 6 from the start of experiment, ALA was administered, and then CDDP was administered. ALA was also administered for 10 days from Day 6 to Day 15. They were otherwise kept as usual. n=9
Group V (“full administration group”): ALA was administered for 15 days from the starting day of experiment to Day 15. On Day 6, ALA was administered, and then CDDP was administered. n=9
Blood was collected every two days for 15 days from the starting day of experiment to Day 15. Observation of hair luster, stool state, and activity of rats was also carried out. Each rat was also dissected on Day 16, and the kidney was resected. Kidney sections were prepared after resection, and observed under a microscope after HE staining.
Side effects were strongly observed from Day 9 to Day 13 from the starting day of experiment. Accordingly, the state on Days 9, 11, and 13 were scored and evaluated. Hair luster here evaluates the side effect related to skin symptoms. Stool state evaluates the side effect related to the gastrointestinal system. Activity evaluates the side effect related to general symptoms, in particular evaluates the side effect related to malaise.
Each item was evaluated for each mouse by the following criteria, and is the numerical value of the sum of the three days (Days 9, 11, and 13) divided by the number of evaluation subject mice.
5: Very good, 4: ordinarily state, 3: slightly poor, 2: poor, and 1: death
5: Ordinarily stool, 4: small amount of stool, 3: slight diarrhea, 2: diarrhea, and 1: death
5: Ordinarily state, 4: weak movement, 3: slight movement, 2: no movement, and 1: death

[3] = tested on: T24 cells (human transitional cell bladder cancer cells); assay: Cell toxicity of cisplatin against T24 cells with or without ALA (WST-8, Cell Counting Kit-8); format: cell-based; conditions: ALA hydrochloride salt 200 μM + sodium ferrous citrate 100 μM, any timing, FIG. 8
Procedure: (§1) It was validated whether or not ALA administration has an influence on the cell toxicity (anticancer effect) of anticancer agent against cancer cells.
(§2) The following cancer cells were employed in this experiment: T24 cells (human transitional cell bladder cancer cells) and 253J-BV cells (human urinary tract epithelium cancer cells). […] ALA hydrochloride salt was employed as ALA. In addition, sodium ferrous citrate was administered together with ALA administration.
(§3) Cell toxicity at each concentration was compared in the following Groups I to IV.
(§4) Group I: “No addition group,” i.e. the group with no ALA administered
(§5) Group II: “Pre-administration group,” i.e. the group with ALA administered only “during preculture”
(§6) (1) T24 cells (human transitional cell bladder cancer cells) or 253J-BV cells (human urinary tract epithelium cancer cells) were cultured with a 10 cm dish in DMEM medium comprising 10% FBS to a subconfluent state. They were then collected by trypsin treatment.
(§7) (2) For test groups Group I (no addition group) and Group III (simultaneous administration group), the cells collected in (1) were suspended to a density of 50000 cells/ml in DMEM medium comprising 10% FBS. […]

SD rats [4] = assay: Side effects on the kidney (nephrotoxicity) and weight loss accompanying cisplatin administration in rats, with or without ALA (Example 2); format: in vivo, rat; conditions: for Effect on side effects of anticancer agent on the kidney: FIGS. 4 to 6
Procedure: Serum creatinine and urea nitrogen value (BUN) were measured from blood samples. Moreover, urine protein was measured from urine samples.
Weight loss which is a side effect on general symptoms as well as a side effect related to the gastrointestinal system was also observed at the same time.
Forty-six 6 weeks-old SD rats (male) were purchased from Japan SLC, Inc. They were conditioned for 7 days after purchase. Body weight measurement, blood collection, and urine collection of each rat were performed at the end of the conditioning period. The experiment was started on the next day with 44 rats. Two individuals that had poor serum creatinine, urea nitrogen value (BUN), and urine protein value at the measurement after conditioning were excluded from the experiment.
In this experiment, experiment groups were divided into the following 4 groups I to IV according to the ALA administration condition. The experiment was otherwise performed similarly to Example 1.
Group I (negative control group): Saline was administered on Day 6 from the start of experiment. They were otherwise kept as usual. n=8
Group II (positive control group): CDDP was administered on Day 6 from the start of experiment. They were otherwise kept as usual. n=14
Group III (“post-administration group”): On Day 6 from the start of experiment, ALA was administered, and then CDDP was administered. ALA was also administered for 10 days from Day 6 to Day 15. They were otherwise kept as usual. n=10
Group IV (“full administration group”): ALA was administered for 15 days from the starting day of experiment to Day 15. On Day 6, ALA was administered, and then CDDP was administered. n=11
The body weight of each rat was measured, and blood and urine collection was carried out on starting day of experiment, Days 6, 7, 9, 11, 13, and 15. The collected blood samples were used for measuring serum creatinine and urea nitrogen value (BUN). In addition, the collected urine samples were used for measuring urine protein. Each rat was also dissected on Day 16, and the kidney was resected and observed.

[5] = tested on: 253J-BV cells (human urinary tract epithelium cancer cells); assay: Cell toxicity of cisplatin against 253J-BV cells with or without ALA (WST-8, Cell Counting Kit-8); format: cell-based; conditions: ALA hydrochloride salt 200 μM + sodium ferrous citrate 100 μM, any timing, FIG. 9
Procedure: as §1, §2, §3, §4, §5, §6, §7

[6] = Group III (pre-administration): ALA hydrochloride salt 10 mg/kg + sodium ferrous citrate 15.7 mg/kg oral daily to Day 5, CDDP 8.0 mg/kg i.p. Day 6, sum of scores of Days 9, 11, 13 per animal
[7] = Group IV (post-administration): ALA hydrochloride salt 10 mg/kg + sodium ferrous citrate 15.7 mg/kg oral daily Day 6 to Day 15, CDDP 8.0 mg/kg i.p. Day 6, sum of scores of Days 9, 11, 13 per animal
[8] = Group V (full administration): ALA hydrochloride salt 10 mg/kg + sodium ferrous citrate 15.7 mg/kg oral daily from starting day to Day 15, CDDP 8.0 mg/kg i.p. Day 6, sum of scores of Days 9, 11, 13 per animal
[9] = Groups III, IV and V (ALA + CDDP) versus Group II, FIG. 1

## aminolevulinic acid phosphate salt
[1]; FOLFOX, FOLFIRI and Avastin with oral 50 mg aminolevulinic acid phosphate salt + 57.4 mg sodium ferrous citrate per day
  Time for which anticancer agent therapy could be continued after the surgery: one year
[1]; Jan. 28, 2011, about 1 year and 5 months after starting oral 50 mg aminolevulinic acid phosphate salt + 57.4 mg sodium ferrous citrate per day, just before surgery 9.80
  Hemoglobin: 12.20 g/dL
[1]; Jan. 28, 2011, about 1 year and 5 months after starting oral 50 mg aminolevulinic acid phosphate salt + 57.4 mg sodium ferrous citrate per day, just before surgery 13.20
  Number of Leukocytes: 6200 µL⁻¹
[1]; Jan. 28, 2011, about 1 year and 5 months after starting oral 50 mg aminolevulinic acid phosphate salt + 57.4 mg sodium ferrous citrate per day, just before surgery (Aug. 19, 2009) 2.97
  Number of Erythrocytes: 3.44e+06 µL⁻¹
[1]; about 1 year and 5 months after starting intake, with sodium ferrous citrate
  Anemia improvement effect: anemia as a side effect of administration of anticancer agent is improved
[1]; declared life expectancy 3 months, oral 50 mg aminolevulinic acid phosphate salt + 57.4 mg sodium ferrous citrate per day
  Survival after surgery: one and a half years

## N.N.[Cl][Pt][Cl] [cisplatin, reference compound]
SD rats [2]; Group II (positive control): CDDP 8.0 mg/kg i.p. Day 6, no ALA, FIG. 1
  Rat survival rate: reduction in the survival rate was seen on Day 9
SD rats [2]; Group II (positive control): CDDP 8.0 mg/kg i.p. on Day 6, no ALA, sum of scores (5 best, 1 death) of Days 9, 11, 13 divided by number of animals
  Hair luster (final evaluation): 7.80

## NCC(=O)CCC(=O)O [ALA, 5-aminolevulinic acid]
[3]
  Influence of ALA administration on anticancer effect of cisplatin: hardly attenuated
SD rats [2]; ALA-administered groups + CDDP
  Damage to the kidney (HE staining, Day 16): alleviated the damage to the kidney
SD rats [2]; Group III (pre-administration) and Group IV (post-administration) + CDDP
  Damage to the kidney (HE staining, Day 16): a certain effect
SD rats [2]; Group III (pre-administration) or Group IV (post-administration) + CDDP, FIG. 1
  Rat survival rate: a certain suppression effect
SD rats [2]; [6]
  Activity (final evaluation): 8.10
  Hair luster (final evaluation): 8.10
  Overall evaluation (final evaluation): 7.50
  Stool state (final evaluation): 8.90
SD rats [2]; [7]
  Activity (final evaluation): 9.56
  Hair luster (final evaluation): 8.89
  Overall evaluation (final evaluation): 8.78
  Stool state (final evaluation): 10.78
SD rats [2]; Group V (full administration) + CDDP
  Damage to the kidney (HE staining, Day 16): the most effective
SD rats [2]; [8]
  Activity (final evaluation): 11.33
  Hair luster (final evaluation): 11.33
  Overall evaluation (final evaluation): 9.67
  Stool state (final evaluation): 13.33
SD rats [2]; Group V (full administration, ALA throughout) + CDDP, FIG. 1
  Rat survival rate: highest survival rate
SD rats [2]; [9]
  Rat survival rate until Day 16: reduction in the survival rate until Day 16 could be suppressed
  Timing of the start of reduction in the survival rate: the timing of the start of reduction in the survival rate was delayed
SD rats [4]; Group III (post-administration) + CDDP, FIG. 3
  Effect on weight loss: a certain effect
SD rats [4]; Group III (post-administration) + CDDP
  Effect on side effects of anticancer agent on the kidney: a certain effect
SD rats [4]; Group III (post-administration) and Group IV (full administration), ALA + CDDP, FIG. 3
  Decrease in body weight: decreased in body weight due to the side effects from anticancer agent was suppressed
SD rats [4]; Group III and Group IV, ALA + CDDP, FIG. 3
  Re-increase of body weight: re-increase of body weight was observed on Day 5 and after
SD rats [4]; Group III and Group IV, ALA + CDDP, slight increase on Day 3, FIG. 6
  Urine protein value: a value not much different from the negative control group was maintained
SD rats [4]; Group III and Group IV, ALA + CDDP, slight increase on Day 5, FIG. 4
  Serum creatinine value: a value not much different from the negative control group was maintained
SD rats [4]; Group III and Group IV, ALA + CDDP, slight increase on Day 5, FIG. 5
  Urea nitrogen value (BUN): a value not much different from the negative control group was maintained
SD rats [4]; Group IV (full administration) + CDDP, FIG. 3
  Effect on weight loss: the most effective
SD rats [4]; Group IV (full administration) + CDDP
  Effect on side effects of anticancer agent on the kidney: the most effective
[5]
  Influence of ALA administration on anticancer effect of cisplatin: hardly attenuated
